Our source for the mutagenic call values is PubChem BioAssay AID1259407 (Chemical Carcinogenesis Research Information System (CCRIS), 2018).

In this data set the test system is CCRIS mutagenicity, Ames/micronucleus/aberration tests. Nature of the data set: CCRIS mutagenicity studies.
Where [1] appears, read: Test System: AMES SALMONELLA TYPHIMURIUM, Strain/Indicator: TA98, Metabolic Activation: NONE, Method: STANDARD PLATE.
Where [2] appears, read: Test System: AMES SALMONELLA TYPHIMURIUM, Strain/Indicator: TA100, Metabolic Activation: NONE, Method: STANDARD PLATE.
[3] abbreviates: Test System: AMES SALMONELLA TYPHIMURIUM, Strain/Indicator: TA98, Metabolic Activation: HAMSTER, LIVER, S-9, AROCLOR 1254 (10%), Method: PREINCUBATION
The mark [4] stands for this setting: Test System: AMES SALMONELLA TYPHIMURIUM, Strain/Indicator: TA98, Metabolic Activation: NONE, Method: PREINCUBATION
Where [5] appears, read: Test System: AMES SALMONELLA TYPHIMURIUM, Strain/Indicator: TA98, Metabolic Activation: RAT, LIVER, S-9, AROCLOR 1254 (10%), Method: PREINCUBATION
The mark [6] stands for this setting: Test System: AMES SALMONELLA TYPHIMURIUM, Strain/Indicator: TA98, Metabolic Activation: RAT, LIVER, S-9, AROCLOR 1254, Method: STANDARD PLATE.
The mark [7] stands for this setting: Test System: AMES SALMONELLA TYPHIMURIUM, Strain/Indicator: TA100, Metabolic Activation: HAMSTER, LIVER, S-9, AROCLOR 1254 (10%), Method: PREINCUBATION
Setting [8] is: Test System: AMES SALMONELLA TYPHIMURIUM, Strain/Indicator: TA100, Metabolic Activation: NONE, Method: PREINCUBATION
[9] abbreviates: Test System: AMES SALMONELLA TYPHIMURIUM, Strain/Indicator: TA100, Metabolic Activation: RAT, LIVER, S-9, AROCLOR 1254 (10%), Method: PREINCUBATION
Setting [10] is: Test System: AMES SALMONELLA TYPHIMURIUM, Strain/Indicator: TA100, Metabolic Activation: RAT, LIVER, S-9, AROCLOR 1254, Method: STANDARD PLATE.
Where [11] appears, read: Test System: AMES SALMONELLA TYPHIMURIUM, Strain/Indicator: TA1535, Metabolic Activation: HAMSTER, LIVER, S-9, AROCLOR 1254 (10%), Method: PREINCUBATION
Where [12] appears, read: Test System: AMES SALMONELLA TYPHIMURIUM, Strain/Indicator: TA1535, Metabolic Activation: NONE, Method: PREINCUBATION
[13] abbreviates: Test System: AMES SALMONELLA TYPHIMURIUM, Strain/Indicator: TA1535, Metabolic Activation: RAT, LIVER, S-9, AROCLOR 1254 (10%), Method: PREINCUBATION

The source made the active and inactive calls. No rule for the calls is given here.

For the molecule `Cc1ccc(C)c2c1[nH]c1ccccc12`, the mutagenic call under setting [1] was “inactive; negative”; the mutagenic call (Test System: AMES SALMONELLA TYPHIMURIUM, Strain/Indicator: TA98, Metabolic Activation: RAT LIVER S-9, AROCLOR 1254, Method: STANDARD PLATE) is “active; positive”; the mutagenic call under setting [2] is “inactive; negative”; the mutagenic call (Test System: AMES SALMONELLA TYPHIMURIUM, Strain/Indicator: TA100, Metabolic Activation: RAT LIVER S-9, AROCLOR 1254, Method: STANDARD PLATE) is “inactive; negative”.
Regarding `CCC(=O)C1c2cccc(O)c2C(=O)c2c(O)cccc21`, the mutagenic call runs as follows: (Test System: AMES SALMONELLA TYPHIMURIUM, Strain/Indicator: TA1537, Metabolic Activation: NONE, Method: STANDARD PLATE) “active; positive”; (Test System: AMES SALMONELLA TYPHIMURIUM, Strain/Indicator: TA1537, Metabolic Activation: RAT, LIVER, S-9, PHENOBARBITAL AND BETA-NAPHTHOFLAVONE, Method: STANDARD PLATE) “active; positive”; (Test System: E. COLI, Strain/Indicator: WP2, Metabolic Activation: NONE, Method: STANDARD PLATE) “inactive; negative”; (Test System: E. COLI, Strain/Indicator: WP2, Metabolic Activation: RAT, LIVER, S-9, AROCLOR 1254, Method: STANDARD PLATE) “inactive; negative”; (Test System: E. COLI, Strain/Indicator: WP2 UVRA, Metabolic Activation: NONE, Method: STANDARD PLATE) “inactive; negative”; (Test System: E. COLI, Strain/Indicator: WP2 UVRA, Metabolic Activation: RAT, LIVER, S-9, AROCLOR 1254, Method: STANDARD PLATE) “inactive; negative”.
On to `OCc1cccc2c1-c1cccc3cccc-2c13`, for which the mutagenic call was “inactive; negative” under setting [1] and “inactive; negative” under setting [2].
Take `OCCBr`: the mutagenic call (Test System: AMES SALMONELLA TYPHIMURIUM, Strain/Indicator: TA97, Metabolic Activation: HAMSTER, LIVER, S-9, AROCLOR 1254 (10%), Method: PREINCUBATION) is “inactive; negative”; the mutagenic call (Test System: AMES SALMONELLA TYPHIMURIUM, Strain/Indicator: TA97, Metabolic Activation: NONE, Method: PREINCUBATION) is “inactive; negative”; the mutagenic call (Test System: AMES SALMONELLA TYPHIMURIUM, Strain/Indicator: TA97, Metabolic Activation: RAT, LIVER, S-9, AROCLOR 1254 (10%), Method: PREINCUBATION) is “inactive; negative”; the mutagenic call under setting [3] was “inactive; negative”; the mutagenic call under setting [4] was “inactive; negative”; the mutagenic call under setting [1] is “inactive; negative”. Moreover, the mutagenic call reads like this: under setting [5], “inactive; negative”; under setting [6], “inactive; negative”; under setting [7], “active; positive”; under setting [8], “active; positive”; under setting [2], “active; positive”; under setting [9], “active; positive”. The mutagenic call under setting [10] is “active; positive”, the mutagenic call under setting [11] was “active; positive”, the mutagenic call under setting [12] is “active; positive” and the mutagenic call under setting [13] was “active; positive”.
Consider `ClC1=C(Cl)[C@]2(Cl)[C@@H]3[C@H]4C[C@H]([C@@H]5O[C@H]45)[C@@H]3[C@@]1(Cl)C2(Cl)Cl`, for which the mutagenic call is “inactive; negative” (Test System: AMES SALMONELLA TYPHIMURIUM, Strain/Indicator: TA97, Metabolic Activation: NONE, Method: STANDARD PLATE); “inactive; negative” (Test System: AMES SALMONELLA TYPHIMURIUM, Strain/Indicator: TA97, Metabolic Activation: RAT, LIVER, S-9, AROCLOR 1254, Method: STANDARD PLATE); “inactive; negative” under setting [3]; “inactive; negative” under setting [4]; “inactive; negative” under setting [1]; “inactive; negative” under setting [5]. The mutagenic call under setting [6] was “inactive; negative”; the mutagenic call under setting [7] was “inactive; negative”; the mutagenic call under setting [8] was “inactive; negative”; the mutagenic call under setting [2] is “inactive; negative”; the mutagenic call under setting [9] is “inactive; negative”; the mutagenic call under setting [10] is “inactive; negative”. The mutagenic call is “inactive; negative” (Test System: AMES SALMONELLA TYPHIMURIUM, Strain/Indicator: TA102, Metabolic Activation: NONE, Method: STANDARD PLATE); “inactive; negative” (Test System: AMES SALMONELLA TYPHIMURIUM, Strain/Indicator: TA102, Metabolic Activation: RAT, LIVER, S-9, AROCLOR 1254, Method: STANDARD PLATE); “inactive; negative” under setting [11]; “inactive; negative” under setting [12]; “inactive; negative” under setting [13]; “inactive; negative” (Test System: AMES SALMONELLA TYPHIMURIUM, Strain/Indicator: TA1537, Metabolic Activation: HAMSTER, LIVER, S-9, AROCLOR 1254 (10%), Method: PREINCUBATION). Besides, the mutagenic call is, setting by setting: (Test System: AMES SALMONELLA TYPHIMURIUM, Strain/Indicator: TA1537, Metabolic Activation: NONE, Method: PREINCUBATION) “inactive; negative”; (Test System: AMES SALMONELLA TYPHIMURIUM, Strain/Indicator: TA1537, Metabolic Activation: RAT, LIVER, S-9, AROCLOR 1254 (10%), Method: PREINCUBATION) “inactive; negative”; (Test System: MOUSE LYMPHOMA, Strain/Indicator: L5178Y (TK+/TK-), Metabolic Activation: NONE, Method: SUSPENSION/PLATE) “inactive; negative”; (Test System: MOUSE LYMPHOMA, Strain/Indicator: L5178Y (TK+/TK-), Metabolic Activation: RAT, LIVER, S-9, AROCLOR 1254, Method: SUSPENSION/PLATE) “inactive; negative”.
